From patent publication US7138361B2, “Herbicidal heterocycles” (E. I. du Pont de Nemours and Company, priority 2000, dated 2006)

Experiments:
Format in all cases: in vivo
[1] = tested on: barnyardgrass (Echinochloa crus-galli); assay: Test C flooded paddy test; settings: for Barnyardgrass plant response rating: Flooded Paddy, scale 0 to 100, 0 no effect, 100 complete control
Outline: (§1)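 Flooded paddy, 2-leaf stage at treatment. Readout: visual % control vs untreated, 0–100, at 12–14 d in greenhouse.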

[2] = tested on: smallflower flatsedge (Cyperus difformis); assay: Test C flooded paddy test; settings: for Flatsedge plant response rating: Flooded Paddy, scale 0 to 100, 0 no effect, 100 complete control
Outline: as §1

rice (Oryza saliva) = assay: Test C flooded paddy test
Outline: as §1

[3] = tested on: duck salad (Heteranthera limosa); assay: Test C flooded paddy test; settings: for Ducksalad plant response rating: Flooded Paddy, scale 0 to 100, 0 no effect, 100 complete control
Outline: as §1

Sunflower [4] = assay: Test C preemergence; settings: Rate 62 g/ha, scale 0 to 100
Sunflower [5] = assay: Test C preemergence; settings: Rate 250 g/ha, scale 0 to 100, 0 no effect, 100 complete control
[6] = tested on: common ragweed (Ambrosia elatior); assay: Test C preemergence
Outline: (§2)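 Formulation: non-phytotoxic solvent mix incl. surfactant. Pre: applied right after planting. Post: 1–4-leaf seedlings. Read: visual 0–100, day 12–14, greenhouse.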

[7] = tested on: Surinam grass (Brachiaria decumbens); assay: Test C preemergence
Outline: as §2

Sunflower [8] = assay: Test C preemergence; settings: Rate 125 g/ha; scale 0 to 100, 0 no effect, 100 complete control
[9] = tested on: pigweed (Amaranthus retroflexus); assay: Test B postemergence; settings: Rate 125 g/ha, scale 0 to 100, 0 no effect, 100 complete control
Outline: (§3)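 Pre: seeded pots sprayed, chemical in non-phytotoxic solvent/surfactant mix. Post: plants 2–18 cm, 1–4 leaf, same formulation. Greenhouse 13–15 d; visual % control vs untreated, 0–100 scale.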

[10] = tested on: giant foxtail (Setaria faberii); assay: Test B postemergence; settings: Rate 125 g/ha, scale 0 to 100, 0 no effect, 100 complete control
Outline: as §3

[11] = tested on: lambsquarters (Chenopodium album); assay: Test B postemergence; settings: Rate 125 g/ha, scale 0 to 100, 0 no effect, 100 complete control
Outline: as §3

[12] = tested on: barnyardgrass (Echinochloa crus-galli); assay: Test B postemergence
Outline: as §3

[13] = tested on: crabgrass (Digitaria sanguinalis); assay: Test B postemergence; settings: Rate 125 g/ha, scale 0 to 100, 0 no effect, 100 complete control
Outline: as §3

corn (Zea mays) = assay: Test B postemergence
Outline: as §3

[14] = tested on: blackgrass (Alopecurus myosuroides); assay: Test B postemergence
Outline: as §3

[15] = tested on: velvetleaf (Abutilon theophrasti); assay: Test B postemergence; settings: Rate 125 g/ha, scale 0 to 100, 0 no effect, 100 complete control
Outline: as §3

[16] = tested on: cocklebur (Xanthium strumarium); assay: Test B postemergence
Outline: as §3

wild oat (Avena fatua) = assay: Test B postemergence; settings: Rate 125 g/ha, scale 0 to 100, 0 no effect, 100 complete control
Outline: as §3

[17] = tested on: Surinam grass (Brachiaria decumbens); assay: Test B postemergence
Outline: as §3

[18] = tested on: wheat (Triticum aestivum); assay: Test B postemergence; settings: Rate 125 g/ha, scale 0 to 100, 0 no effect, 100 complete control
Outline: as §3

[19] = tested on: morning glory (Ipomoea hederacea); assay: Test B postemergence; settings: Rate 125 g/ha, scale 0 to 100, 0 no effect, 100 complete control
Outline: as §3

[20] = flooded paddy test, Rate 125 g/ha, scale 0 to 100 (0 no effect, 100 complete control)
[21] = flooded paddy test, Rate 16 g/ha, visually evaluated after 12 to 14 days, 0 = no effect, 100 = complete control
[22] = flooded paddy test, Rate 62 g/ha, visually evaluated after 12 to 14 days, 0 = no effect, 100 = complete control
[23] = flooded paddy test, under head Rate 16 g/ha, (own rate not given), after 12 to 14 days
[24] = Rate 125 g/ha, scale 0 to 100, 0 no effect, 100 complete control
[25] = preemergence, Rate 62 g/ha, scale 0 to 100
[26] = preemergence, Rate 500 g/ha, visual evaluation after 12 to 14 days
[27] = preemergence, Rate 250 g/ha, scale 0 to 100, 0 no effect, 100 complete control
[28] = Rate 500 g/ha, scale 0 to 100, 0 is no effect, 100 is complete control, 13 to 15 days

CCOc1cccc(N2CCC(n3ccc(C(C)(C)C)n3)C2=O)c1 (stereo not shown) [Compound 130]
70: Plant response rating (scale 0 to 100), Barnyardgrass [1, 21] | Plant response rating (scale 0 to 100), Ducksalad [3, 21] | Plant response rating, Sunflower (Sunflower [5]) | Plant response rating, Morningglory [19]
0: Plant response rating (scale 0 to 100), Rice (rice (Oryza saliva); [21]) | Plant response rating (scale 0 to 100), Rice (rice (Oryza saliva); [23]) | Plant response rating, Foxtail, Giant [10] | Plant response rating, Barnyardgrass [12, 24] | Plant response rating, Crabgrass [13] | Plant response rating, Corn (corn (Zea mays); [24]) | Plant response rating, Corn (corn (Zea mays); [28]) | Plant response rating, Blackgrass [14, 24] | Plant response rating, Velvetleaf [15] | Plant response rating, Wild Oat (wild oat (Avena fatua)) | Plant response rating, Surinam grass [17, 24] | Plant response rating, Wheat [18]
80: Rice plant response rating (rice (Oryza saliva); Flooded Paddy, Rate 250 g/ha, scale 0 to 100, 0 no effect, 100 complete control) | Plant response rating, Pigweed [9]
20: Plant response rating, Rice (rice (Oryza saliva); [20]) | Plant response rating (scale 0 to 100), Ducksalad [3, 23] | Plant response rating, Blackgrass [14, 28] | Plant response rating, Cocklebur [16, 24]
40: Plant response rating, Surinam grass [17, 28]
60: Plant response rating, Sunflower (Sunflower [4]) | Plant response rating, Sunflower (Sunflower [8])
90: Plant response rating (scale 0 to 100), Barnyardgrass [1, 22] | Flatsedge plant response rating ([2]; Rate 250 g/ha) | Flatsedge plant response rating ([2]; Rate 500 g/ha) | Plant response rating (scale 0 to 100), Flatsedge [2, 22] | Plant response rating (scale 0 to 100), Flatsedge [2, 23] | Ducksalad plant response rating ([3]; Rate 250 g/ha) | Plant response rating, Ducksalad [3, 20] | Plant response rating (scale 0 to 100), Ducksalad [3, 22] | Plant response rating, Lambsquarters [11] | Plant response rating, Barnyardgrass [12, 28]
100: Barnyardgrass plant response rating ([1]; Rate 250 g/ha) | Barnyardgrass plant response rating ([1]; Rate 500 g/ha) | Plant response rating, Barnyardgrass [1, 20] | Plant response rating, Flatsedge [2, 20] | Plant response rating (scale 0 to 100), Flatsedge [2, 21] | Ducksalad plant response rating ([3]; Rate 500 g/ha) | Plant response rating, Ragweed, Common [6, 24] | Plant response rating, Ragweed, Common [6, 25] | Plant response rating (0 to 100), Ragweed, Common [6, 26] | Plant response rating, Ragweed, Common [6, 27] | Plant response rating, Surinam grass [7, 24] | Plant response rating, Surinam grass [7, 25] | Plant response rating (0 to 100), Surinam grass [7, 26] | Plant response rating, Surinam grass [7, 27]
50: Plant response rating (scale 0 to 100), Barnyardgrass [1, 23] | Plant response rating (scale 0 to 100), Rice (rice (Oryza saliva); [22]) | Plant response rating, Cocklebur [16, 28]
